Key:
LNCaP cell line = experiment: Cell proliferation suppression test (crystal violet staining); format: cell-based; conditions: final concentration of 0.625 uM or greater, two weeks culture
Protocol: (§1) 5×10^3 cells of the LNCaP cell line, 4×10^4 cells of the AILNCaP14 cell line, and 6×10^4 cells of the AILNCaP15 cell line were each seeded on a 24-well plate to which 1 mL/well of medium was dispensed. […] After culturing each cell line for an additional two weeks, the status of cell proliferation was measured by cell staining (Bommi-Reddy et al. Proc Natl Acad Sci USA. 105: 16484-16489 (2008)) using crystal violet.

AILNCaP14 cell line = experiment: as above; format: cell-based
Protocol: as §1
(§2) The final concentrations of alvocidib were set to be 0.125, 0.25, 0.5, and 1.0 uM.

AILNCaP15 cell line = experiment: as above; format: cell-based
Protocol: as §1, §2

[1] = Body weight in the xenograft mouse test; format: in vivo; conditions: NOD-SCID mice; 3 mg/kg intraperitoneally, three times every two days
Protocol: 2×10^6 […]14 cells were subjected to suspension culture for 4 days using a PrimeSurface® petri dish 90 mm (product code: MS-9090X) in a phenol red free RPMI 1640 medium containing activated carbon-treated 10% fetal bovine serum (csFBS). The cultured cells that were collected, mixed with 350 uL of Matrigel (Corning® Matrigel® Basement Membrane Matrix; catalog number: 356237), and then divided into 3 equal portions were transplanted subcutaneously into three sites on NOD-SCID mice (male, 8 mice, 6 to 8 weeks old) 7 days after castration. After the subcutaneous transplantation, the mice were continuously raised, and an aqueous saline solution of alvocidib hydrochloride (3 mg/kg) was administered intraperitoneally to the mice for a total of three times at an interval of once every two days from the point (day 0) where the volume of tumor formed subcutaneously reached 25 mm^3 or greater and 100 mm^3 or less at one or two of the tumor transplantation sites.

[2] = tested on: AR nuclear translocation in AILNCaP14 cell line; experiment: AR nuclear translocation suppression test using immunofluorescent staining; format: cell-based; conditions: 0.25 μM, 4 days, vs DMSO control
Protocol: 1×10^5 cells of the […]14 cell line were seeded on a 48-well plate to which 0.5 mL/well of medium was dispensed. After 3 days of culture under the conditions of 5% CO2 at 37° C., a DMSO solution of alvocidib was diluted with a medium so that the final concentration of alvocidib would be 0.25 μM and added to each well (final volume of 1.0 mL). As a control, alvocidib-free DMSO was similarly diluted and added. After culturing for 4 days, the cells were gently washed once with PBS, and immobilized by allowing 4% paraformaldehyde phosphate buffer to act on the cells for 15 minutes. After washing the cells gently twice with PBS, the cells were incubated for 15 minutes in a 4% PBST solution. The cells were further incubated for 15 minutes in a blocking reagent (DS Pharma Biomedical, Cat no. UK-B80), and the cells were then incubated overnight at 4° C. after adding an anti-AR antibody (Santa Cruz Biotechnology Inc., Cat no. sc-816). After washing the cells gently twice with PBS, the cells were incubated for 45 minutes at room temperature after adding a secondary antibody for immunofluorescent staining (Thermo Fisher Scientific, Cat no A-21206). After washing the cells gently twice with PBS, the cells were incubated for 10 minutes after adding DAPI (Nacalai tesque, Cat no. 11034-56). After washing the cells twice for 10 minutes with 1% PBS, signals were measured with a fluorescence microscope.

[3] = tested on: androgen receptor (AR) phosphorylation in AILNCaP15 cell line; experiment: AR phosphorylation suppression test by immunoblotting; format: cell-based; conditions: 0.25 uM, 1 to 4 days
Protocol: (§3) After the culturing, each of 1×10^6 cells were washed with ice cooled PBS, and then treated with cell lysis buffer containing 8 M of urea, 20 mM of Tris hydrochloride (pH 7.4), 1 mM of EDTA, and protease inhibitor (Nacalai tesque, Cat no. 03969) and phosphatase inhibitor (Nacalai tesque, Cat no. 07575-51)—added 1.0% Triton X. The cell lysate was then subjected to high speed centrifugation (21,500 G) for 20 minutes at 4° C. The total amount of cell protein was quantified using a protein quantification reagent (Thermo Fisher Scientific, Cat no. 23227).

[4] = tested on: androgen receptor (AR) phosphorylation in AILNCaP14 cell line; experiment: as above; format: cell-based; conditions: 0.25 uM, 1 to 4 days
Protocol: as §3
As a positive control, JQ1 (Cayman Chemical) was used.

[5] = tested on: AILNCaP14 cell derived subcutaneous xenograft; experiment: Tumor proliferation suppression test using a subcutaneous xenograft mouse model; format: in vivo; conditions: castrated NOD-SCID mice; 3 mg/kg intraperitoneally, three times every two days; vs saline negative control; p value=0.0497
Protocol: 2×10^6 […] 14 cells were subjected to suspension culture for 4 days using a PrimeSurface® petri dish 90 mm (product code: MS-9090X) in a phenol red free RPMI 1640 medium containing activated carbon-treated 10% fetal bovine serum (csFBS). The cultured cells that were collected, mixed with 350 uL of Matrigel (Corning® Matrigel® Basement Membrane Matrix; catalog number: 356237), and then divided into 3 equal portions were transplanted subcutaneously into three sites on NOD-SCID mice (male, 8 mice, 6 to 8 weeks old) 7 days after castration. […] The tumor volume after three days (day 7) from the third administration was measured, and the ratio of increase in tumor volume was computed in accordance with the following equation. Ratio of increase in tumor volume=tumor volume on day 7/tumor volume on day 0 As a negative control group, the same test was conducted using saline in place of an agent administered solution, and the ratio of increase in tumor volume was computed.

[6] = final concentration of 5 uM, compared to LNCaP cell line
[7] = 336 h, two weeks culture, crystal violet
[8] = final concentration of 0.25 uM or greater

Row | SMILES | suppression of cell proliferation (LNCaP cell line) | suppression of cell proliferation (AILNCaP14 cell line; [6]) | suppression of cell proliferation (AILNCaP15 cell line; [6]) | decrease in the body weight of mice [1] | AR nuclear translocation [2] | phosphorylation of serine 81 of AR [3] | phosphorylation of serine 210 or serine 213 of AR [3] | phosphorylation of serine 81 of AR [4] | phosphorylation of serine 210 or serine 213 of AR [4] | ratio of increase in tumor volume (day 7/day 0) [5] | IC50 (AILNCaP14 cell line; [7]) | effect of suppressing cell proliferation (AILNCaP14 cell line; [8]) | IC50 (AILNCaP15 cell line; [7]) | effect of suppressing cell proliferation (AILNCaP15 cell line; [8])
1 | CNC(=O)c1ccc(N2C(=S)N(c3ccc(C#N)c(C(F)(F)F)c3)C(=O)C2(C)C)cc1F [enzalutamide] | clear suppression of cell proliferation | significant weaker suppression of cell proliferation | significant weaker suppression of cell proliferation |  |  |  |  |  |  |  |  |  |  | 
2 | CN1CC[C@H](c2c(O)cc(O)c3c(=O)cc(-c4ccccc4Cl)oc23)[C@H](O)C1 [alvocidib, 2-(2-chlorophenyl)-5,7-dihydroxy-8-[(3S,4R)-3-hydroxy-1-methylpiperidin-4-yl]-4H-1-benzopyran-4-one] |  |  |  | not observed | suppressed | suppressed over time | suppressed over time | suppressed over time | suppressed over time | decreased | 125 to 250 nM | very potent effect of suppressing cell proliferation | 125 to 250 nM | very potent effect of suppressing cell proliferation
